Measurements published in patent publication US4175081A, “5-Substituted thiadiazole ureas” (priority 1977, dated 1979).

Columns and labels:
Turnip (TP) [1] = experiment: Post-emergence herbicide test; assay type: in vivo, Brassica sp.; details: Brassica rapa, post-emergence, 336 h, two weeks after treatment
Outline: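 A greenhouse post-emergence herbicide test on turnip. Seeds were sown on the surface of potting soil in 3' plastic pots, lightly covered with screened soil and watered from below. Planting was timed so seedlings had 1 or 2 true leaves above the cotyledons at spraying, done in a hood with a fixed nozzle. Control or injury was scored by eye after two weeks.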

Turnip (TP) [2] = experiment: Pre-emergence herbicide test; assay type: in vivo, Brassica sp.; details: Brassica rapa, pre-emergence, 336 h, two weeks after treatment
Outline: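 In this pre-emergence greenhouse test, turnip was seeded on the surface of potting soil in 3' plastic pots, lightly covered with screened soil, and watered from below. One day later the pots were sprayed in a belt-fed spray hood. Watering continued only by sub-irrigation, and percent control was visually scored two weeks after treatment.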

Crabgrass (CG) [3] = experiment: Post-emergence herbicide test; assay type: in vivo, Digitaria sanquinalis; details: Digitaria sanguinalis, post-emergence, 336 h, two weeks after treatment
Outline: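 Crabgrass (Digitaria sanquinalis) was surface seeded individually in 3' plastic pots of potting soil, covered with screened soil, and watered by sub-irrigation in greenhouse trays. Planting was staggered so seedlings reached the target stage together. Post-emergence sprays were applied in a hood with a removable belt and fixed nozzle, and control was visually rated two weeks after treatment.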

Bean (BN) [4] = experiment: Pre-emergence herbicide test; assay type: in vivo, Phaseolus vulgaris var. Black Valentine; details: Phaseolus vulgaris, 336 h, two weeks after treatment
Outline: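 Visual injury/control ratings were taken two weeks post-spray on sub-irrigated Phaseolus vulgaris var. Black Valentine. Pots were sown a day before treatment. Pre-emergence spray delivered 8 lbs actual compound per acre (or 4 lbs/acre) at 38 gallons per acre.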

Cotton (CT) [5] = experiment: Post-emergence herbicide test; assay type: in vivo, Gossypium hirsutum var. DPL smooth leaf; details: Gossypium hirsutum, post-emergence, 336 h, two weeks after treatment
Outline: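 This greenhouse post-emergence test measured how well spray treatments controlled cotton. Seedlings of Gossypium hirsutum var. DPL smooth leaf, with expanded cotyledons and a first true leaf 1' in length, were sprayed with 50 ml formulations in a belt-fed spray hood. They were then returned to the greenhouse and watered only by sub-irrigation. Injury was scored visually as % control after two weeks.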

Amaranth pigweed (PW) = experiment: Pre-emergence herbicide test; assay type: in vivo, Amaranthus retroflexus; details: 336 h, two weeks after treatment
Description: All crop and weed species were planted individually in 3' plastic pots containing potting soil. Four seeds each of corn, cotton, and snapbeans were seeded to a depth equal to the diameter of the seed. All other species were surface seeded and sprinkled with screened soil in an amount sufficient to cover the seed. Immediately after planting, all pots were watered by sub-irrigation in greenhouse trays. Pots for the pre-emergence phase were seeded one day before treatment.
Compounds were tested at rates of application equivalent to 8 lbs. of actual compound per acre in a spray volume of 38 gallons per acre. Spray hood constants required to deliver the above volume are as follows:
Formulations for spray applications were prepared in 50 ml volumes with the following three components:
Formulations for the 4 lbs/acre rate were prepared by adjusting the amount of active ingredient accordingly.
Spray applications were made in a hood containing a removable belt and fixed spray nozzle. For passage through the spray hood, one pot of each specie (pre-emergence phase) was placed on the rear half of the flat. Treatments were removed to the greenhouse after spraying. Watering during the observation period was done only by sub-irrigation.
Two weeks after treatment, pre- and post-emergence injury or control was visually rated, and the results were as shown in the following tables. Pre-emergence data are provided in TABLE III and post-emergence data are provided in TABLE IV, for compounds having the formula illustrated in TABLE I. Correspondingly, pre-emergence and post-emergence data, respectively, are set forth in TABLES V AND VI, for compounds having the formula illustrated in TABLE II.

Barnyard grass (BG) = experiment: Pre-emergence herbicide test; assay type: in vivo; details: Echinochloa crus-galli, 336 h, two weeks after treatment
Outline: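 Greenhouse pre-emergence spray test: pots seeded one day before treatment received compound at rates of 8 or 4 lb/acre (38 gal/acre). Visual injury/control scores for Echinochloa crus-galli taken at two weeks, with watering by sub-irrigation only.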

Cotton (CT) [6] = experiment: Pre-emergence herbicide test; assay type: in vivo, Gossypium hirsutum var. DPL smooth leaf; details: Gossypium hirsutum, 336 h, two weeks after treatment
Outline: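 Visual injury/control ratings were taken at two weeks post-spray. Pots seeded a day earlier received compound pre-emergence at 8 lbs/acre, or 4 lbs/acre, in a 38 gallon/acre spray volume, and were then held in the greenhouse, watered only from below.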

Johnson grass (JG) = experiment: Pre-emergence herbicide test; assay type: in vivo, Sorgum helepense; details: Sorghum halepense, 336 h, two weeks after treatment
Outline: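 Visual injury or control rating two weeks post-treatment, after pre-emergence spray of 8 or 4 lbs active per acre (38 gal/acre) onto pots sown the previous day. Greenhouse watering by sub-irrigation only.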

Corn (CN) = experiment: Pre-emergence herbicide test; assay type: in vivo; details: Zea mays, 336 h, two weeks after treatment
Outline: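 Visual injury/control ratings were made 2 weeks post-spray on corn pots seeded (4 seeds, seed-diameter depth) the day before treatment. Application was a belt-hood spray of 38 gal/acre delivering 8 lbs active per acre, with a 4 lbs/acre rate also formulated. Watering was by sub-irrigation throughout.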

Crabgrass (CG) [7] = experiment: Pre-emergence herbicide test; assay type: in vivo, Digitaria sanquinalis; details: Digitaria sanguinalis, pre-emergence, 336 h, two weeks after treatment
Outline: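 Crabgrass (Digitaria sanquinalis) was surface seeded in 3' plastic pots of potting soil, covered with screened soil, and watered by sub-irrigation in greenhouse trays. Pots were seeded one day before spraying in a hood with a moving belt and fixed nozzle. Plants stayed in the greenhouse on sub-irrigation, and pre-emergence control was rated visually two weeks after treatment.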

Bean (BN) [8] = experiment: Post-emergence herbicide test; assay type: in vivo, Phaseolus vulgaris var. Black Valentine; details: Phaseolus vulgaris, post-emergence, 336 h, two weeks after treatment
Outline: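 Bean seedlings (Phaseolus vulgaris var. Black Valentine) were grown in potting soil in 3' pots until the primary leaves expanded. They were then sprayed under a hood with a removable belt and fixed nozzle, using 50 ml formulations. Afterward they were returned to the greenhouse and watered only by sub-irrigation. Percent control was judged visually two weeks after treatment.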

## CCCCSc1nnc(N(C)C(=O)NC)s1 [Example 90]
Turnip (TP) [1]; 0.5 lb/acre
  pest or weed control at 560.425 g/ha: 90%
Turnip (TP) [1]; 1 lb/acre
  pest or weed control at 1120.85 g/ha: 100%
Turnip (TP) [1]; 2 lb/acre
  pest or weed control at 2241.7 g/ha: 100%
Turnip (TP) [1]; 4 lb/acre
  pest or weed control at 4483.4 g/ha: 100%
Turnip (TP) [2]; 0.5 lb/acre
  pest or weed control at 560.425 g/ha: 10%
Turnip (TP) [2]; 1 lb/acre
  pest or weed control at 1120.85 g/ha: 10%
Turnip (TP) [2]; 2 lb/acre
  pest or weed control at 2241.7 g/ha: 60%
Turnip (TP) [2]; 4 lb/acre
  pest or weed control at 4483.4 g/ha: 80%
Crabgrass (CG) [3]; 0.5 lb/acre
  pest or weed control at 560.425 g/ha: 30%
Crabgrass (CG) [3]; 1 lb/acre
  pest or weed control at 1120.85 g/ha: 60%
Crabgrass (CG) [3]; 2 lb/acre
  pest or weed control: 90%
Crabgrass (CG) [3]; 4 lb/acre
  pest or weed control at 4483.4 g/ha: 90%
Bean (BN) [4]; 0.5 lb/acre
  pest or weed control at 560.425 g/ha: 10%
Bean (BN) [4]; 1 lb/acre
  pest or weed control at 1120.85 g/ha: 10%
Bean (BN) [4]; 2 lb/acre
  pest or weed control at 2241.7 g/ha: 40%
Bean (BN) [4]; 4 lb/acre
  pest or weed control at 4483.4 g/ha: 70%
Cotton (CT) [5]; 0.5 lb/acre
  pest or weed control at 560.425 g/ha: 100%
Cotton (CT) [5]; 1 lb/acre
  pest or weed control at 1120.85 g/ha: 100%
Cotton (CT) [5]; 2 lb/acre
  pest or weed control at 2241.7 g/ha: 100%
Cotton (CT) [5]; 4 lb/acre
  pest or weed control at 4483.4 g/ha: 100%
Amaranth pigweed (PW); 0.5 lb/acre
  pest or weed control at 560.425 g/ha: 10%
Amaranth pigweed (PW); 1 lb/acre
  pest or weed control at 1120.85 g/ha: 30%
Amaranth pigweed (PW); 2 lb/acre
  pest or weed control at 2241.7 g/ha: 100%
Amaranth pigweed (PW); 4 lb/acre
  pest or weed control at 4483.4 g/ha: 100%
Barnyard grass (BG); 0.5 lb/acre
  pest or weed control at 560.425 g/ha: 10%
Barnyard grass (BG); 1 lb/acre
  pest or weed control at 1120.85 g/ha: 10%
Barnyard grass (BG); 2 lb/acre
  pest or weed control at 2241.7 g/ha: 90%
Barnyard grass (BG); 4 lb/acre
  pest or weed control at 4483.4 g/ha: 90%
Cotton (CT) [6]; 0.5 lb/acre
  pest or weed control at 560.425 g/ha: 10%
Cotton (CT) [6]; 1 lb/acre
  pest or weed control at 1120.85 g/ha: 10%
Cotton (CT) [6]; 2 lb/acre
  pest or weed control at 2241.7 g/ha: 30%
Cotton (CT) [6]; 4 lb/acre
  pest or weed control at 4483.4 g/ha: 50%
Johnson grass (JG); 0.5 lb/acre
  pest or weed control at 560.425 g/ha: 10%
Johnson grass (JG); 1 lb/acre
  pest or weed control at 1120.85 g/ha: 10%
Johnson grass (JG); 2 lb/acre
  pest or weed control at 2241.7 g/ha: 50%
Johnson grass (JG); 4 lb/acre
  pest or weed control at 4483.4 g/ha: 50%
Corn (CN); 0.5 lb/acre
  pest or weed control at 560.425 g/ha: 10%
Corn (CN); 1 lb/acre
  pest or weed control at 1120.85 g/ha: 10%
Corn (CN); 2 lb/acre
  pest or weed control at 2241.7 g/ha: 10%
Corn (CN); 4 lb/acre
  pest or weed control at 4483.4 g/ha: 30%
Crabgrass (CG) [7]; 0.5 lb/acre
  pest or weed control at 560.425 g/ha: 10%
Crabgrass (CG) [7]; 1 lb/acre
  pest or weed control at 1120.85 g/ha: 10%
Crabgrass (CG) [7]; 2 lb/acre
  pest or weed control at 2241.7 g/ha: 90%
Crabgrass (CG) [7]; 4 lb/acre
  pest or weed control at 4483.4 g/ha: 90%
Bean (BN) [8]; 0.5 lb/acre
  pest or weed control at 560.425 g/ha: 90%
Bean (BN) [8]; 1 lb/acre
  pest or weed control at 1120.85 g/ha: 100%
Bean (BN) [8]; 2 lb/acre
  pest or weed control at 2241.7 g/ha: 100%
Bean (BN) [8]; 4 lb/acre
  pest or weed control at 4483.4 g/ha: 100%
